Assay results published in article PMC9645260, “Small-molecule inhibitors of P-Rex guanine-nucleotide exchange factors” (Small GTPases, 2022).

Legend:
Format in all cases: biochemical
Ect2 (DHPH) = target: T1, Ect2 (DHPH) (Homo sapiens, UniProt Q9H8V3); assay: Liposome-based GEF activity assay, Ect2; settings: 10 µM, 500 nM ECT2 DHPH
T1 construct: The ITSN1 DHPH domains and Ect2 DHPH domains, produced in and purified from bacteria; host or cells: bacteria
T1 sequence (Q9H8V3 452-794 limits assumed): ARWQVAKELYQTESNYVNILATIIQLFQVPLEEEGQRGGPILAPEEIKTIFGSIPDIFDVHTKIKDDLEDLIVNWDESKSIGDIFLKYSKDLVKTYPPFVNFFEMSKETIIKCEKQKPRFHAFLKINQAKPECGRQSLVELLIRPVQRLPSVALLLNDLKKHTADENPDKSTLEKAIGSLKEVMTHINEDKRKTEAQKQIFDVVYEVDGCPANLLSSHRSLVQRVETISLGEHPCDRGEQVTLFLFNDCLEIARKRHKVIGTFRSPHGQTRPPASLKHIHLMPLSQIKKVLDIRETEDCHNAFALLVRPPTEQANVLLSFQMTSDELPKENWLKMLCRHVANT
Protocol: (§1) Full-length N-terminally EE-tagged P-Rex1, P-Rex2, the P-Rex1 DH and DHPH domains and the P-Rex2 DH domain were produced in Sf9 cells using baculoviral transduction and were purified using anti-EE beads, as previously described. Briefly, frozen pellets from 500 ml of Sf9 culture infected with P-Rex expressing high-titre baculovirus were resuspended in ice-cold lysis Sf9-cell lysis buffer 2 (1x PBS, 1% Triton X-100, 5 mM EGTA, 1 mM EDTA, 25 mM NaF, 20 mM β-glycerophosphate, 1 mM DTT, 100 µM PMSF, 10 μg/ml each of leupeptin, pepstatin A, aprotinin and antipain) for 5 min and then ultracentrifuged at 118,000 × g for 1 h at 4°C. Supernatants were incubated with pre-washed anti-EE beads for 90 min on ice with end-over-end rotation. […] Protein concentration and purity were determined by coomassie staining of SDS-PAGE gels. […]
(§2) Liposome-based GEF activity assays were carried out essentially as described, except that GEFs were incubated with inhibitor compounds prior to the assay. […] Small GTPases were isolated using anti-EE antibody-coupled Sepharose beads or glutathione Sepharose beads, as appropriate, by incubation on ice for 90 min with end-over-end rotation, four washes in ice-cold wash buffer and resuspension of beads in Ultima Gold scintillation fluid (Perkin Elmer). ^35S-GTPγS incorporation was assessed by scintillation counting (Packard 1600TR, Liquid Scintillation Analyser).

DOCK10 (DHR2) = target: T2, DOCK10 (DHR2) (Homo sapiens, UniProt Q96BY6); assay: Liposome-based GEF activity assay, DOCK10; settings: 10 µM, 765 nM DOCK10 DHR2
T2 construct: The DOCK10 DHR2 domain, produced in and purified from bacteria; host or cells: bacteria
T2 sequence (Q96BY6 1690-2150 limits assumed): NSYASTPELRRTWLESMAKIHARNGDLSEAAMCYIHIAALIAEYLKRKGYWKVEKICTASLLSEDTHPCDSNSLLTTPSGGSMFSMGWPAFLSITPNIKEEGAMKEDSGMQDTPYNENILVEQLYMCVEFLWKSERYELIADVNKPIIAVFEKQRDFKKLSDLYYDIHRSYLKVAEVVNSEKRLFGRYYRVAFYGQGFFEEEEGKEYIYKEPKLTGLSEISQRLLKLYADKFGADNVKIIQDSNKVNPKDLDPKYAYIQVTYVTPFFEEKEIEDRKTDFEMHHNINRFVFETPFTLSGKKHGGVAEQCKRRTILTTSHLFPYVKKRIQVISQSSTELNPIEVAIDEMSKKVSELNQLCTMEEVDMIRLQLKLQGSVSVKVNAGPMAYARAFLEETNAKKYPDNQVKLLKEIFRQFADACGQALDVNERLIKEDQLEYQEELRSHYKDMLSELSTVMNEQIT
Protocol: as §1, §2

P-Rex1 DH domain = target: T3, P-Rex1 DH domain (Homo sapiens, UniProt Q8TCU6); assay: Liposome-based GEF activity assay, isolated P-Rex1 DH domain; settings: 10 µM, 200 nM DH domain, without PIP3; read-out: inhibition of constitutive Rac-GEF activity of isolated P-Rex1 DH domain
T3 construct: 200 nM iDH EE-P-Rex1 DH domain (compounds 11–29); made in house; host or cells: Sf9 cells (baculovirus)
Protocol: Full-length N-terminally EE-tagged P-Rex1, P-Rex2, the P-Rex1 DH and DHPH domains and the P-Rex2 DH domain were produced in Sf9 cells using baculoviral transduction and were purified using anti-EE beads, as previously described. Briefly, frozen pellets from 500 ml of Sf9 culture infected with P-Rex expressing high-titre baculovirus were resuspended in ice-cold lysis Sf9-cell lysis buffer 2 (1x PBS, 1% Triton X-100, 5 mM EGTA, 1 mM EDTA, 25 mM NaF, 20 mM β-glycerophosphate, 1 mM DTT, 100 µM PMSF, 10 μg/ml each of leupeptin, pepstatin A, aprotinin and antipain) for 5 min and then ultracentrifuged at 118,000 × g for 1 h at 4°C. Supernatants were incubated with pre-washed anti-EE beads for 90 min on ice with end-over-end rotation. Beads were washed 4 times in wash buffer (2x PBS, 0.1% Triton X-100, 1 mM EGTA) and 5 times in elution buffer (1x PBS, 10% glycerol, 1 mM DTT, 1 mM EGTA, 0.01% Na azide), and protein was eluted by incubation with elution buffer containing Ac-EEYMPME peptide as described above. Protein was concentrated in a YM-100 Centricon (Millipore) at 5000 × g at 4°C. Fatty acid-free BSA and glycerol were added to final concentrations of 2 mg/ml and 50%, respectively. Protein concentration and purity were determined by coomassie staining of SDS-PAGE gels. Full-length Tiam1, expressed in and purified from Sf9 cells, was a kind gift from Angeliki Malliri, CRUK Manchester Institute, UK. […]
as §2

T3 sequence (Q8TCU6 49-240 limits assumed): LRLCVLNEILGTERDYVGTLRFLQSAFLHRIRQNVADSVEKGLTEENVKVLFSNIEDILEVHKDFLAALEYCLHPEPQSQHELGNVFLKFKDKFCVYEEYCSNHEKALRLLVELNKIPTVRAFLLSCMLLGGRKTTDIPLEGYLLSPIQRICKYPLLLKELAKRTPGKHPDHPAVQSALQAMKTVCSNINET

For `COc1ccc(-c2[nH]nc3c2C(c2ccc(-c4ccc(Cl)cc4)o2)C(C#N)=C(N)O3)cc1` (stereo not drawn) [PREX-in1, 6-amino-4-[5-(4-chlorophenyl)-2-furyl]-3-(4-methoxyphenyl)-2,4-dihydropyrano[2,3-c]pyrazole-5-carbonitrile], the “effect on GEF activity of Ect2” value (Ect2 (DHPH)) was “none of the other GEFs were affected”, the “effect on GEF activity of DOCK10” value (DOCK10 (DHR2)) was “none of the other GEFs were affected” and the inhibition at 10 µM (P-Rex1 DH domain) was 98%.
